SMILES strings stand for the structures.

The results in this text go back to ChEMBL document CHEMBL4706766, “Novel Bromodomain BRD4 Inhibitors for Treating Cancer” (ACS Med Chem Lett, 2021).

The target of experiment [1] is T1, Bromodomain-containing protein 4 (Homo sapiens, UniProt O60885). Description: Binding affinity to His-6 tagged BRD4 BD1 bromodomain (unknown origin) incubated for 10 mins by TR-FRET assay.
Experiment [2] concerns the target T1, Bromodomain-containing protein 4. Description: Binding affinity to His-6 tagged BRD4 BD2 bromodomain (unknown origin) incubated for 10 mins by TR-FRET assay. (In TR-FRET formats the signal depends on donor and acceptor labels being close together.)

For orientation: IC50 means the midpoint of a concentration-inhibition curve. Take `COC(=O)c1cc2c(cc1CS(C)(=O)=O)-c1cn(C)c(=O)c3[nH]cc(c13)CN2c1ncc(C#CCN)cc1F`: the IC50 in experiment [1] turned out to be 3.3 nM; in experiment [2], 3.7 nM.
